Assays:
[1] = system: DNFB contact hypersensitivity; experiment: Dinitrofluorobenzene (DNFB) contact hypersensitivity test, ear thickening after topical application; format: in vivo, C57 BL/6JICO mice; conditions: Example 13
Description: Study of the Anti-allergic activity of the Peptide compounds, by the Dinitrofluorobenzene (DNFB) contact Hypersensitivity test.
Female C57 BL/6JICO mice 5 weeks old are separated into ten batches of ten animals (five per cage), with free access to water and food, subjected to a photoperiod of twelve hours of light per twenty-four hours.
The animals in batches 1 to 6 receive daily and per topical application on the shaved skin of the back, the products to be studied, dissolved in propylene glycol, in a constant volume of 50 μl and for five consecutive days.
PIII--Batches 1 - 2 - 3--2.5 μg --0.5 μg--0.1 μg--mouse/day
PIV--Batches 4 - 5 - 6 - 2.5μg--0.5 μg--0.1 μg--mouse/day
The animals of the X batch serve as controls (and receive only, 50 μl of propylene glycol per topical application for five days).
(§1) On the fifth day, thirty minutes after the last application, all the mice are sensitized with 25 μl of DNFB (2.4-Dinitro-1-FluoroBenzene (FLUKA CHEMIKA PURUM at 97% batch No. 33820890) at 2% in a 4 to 1 mixture of acetone (SDS ref. 0510) and triolein (FLUKA) applied topically over the dorsal region of shaved skin.
On the sixth day, a new sensitization is carried out by application of DNFB.
On the eleventh day, the thickness of the ears of the mice is measured with the aid of a micrometer (ROCH 0 to 25 mm in 1/100 mm) in order to obtain base values, then the ears are stimulated by topical application of 20 μl of DNFB at 0.8%.
(§2) On the twelfth day, the thickness of the ears is again measured. The mean value of thickening of the ears is established for the mice in the batches which had received the products to be studied, as well as for the mice in the control batch.
The percentage of suppression where appropriate will be expressed by the following calculation: [formula]
Comparative study of the activity of Lipoyl-Peptides and of their peptide structures on DNFB contact hypersensitivity.
The method used is that described above in Example 10.
Contact hypersensitivity induced in mice by Dinitrofluorobenzene--"DNBF"
Batch I: (DL) - Lip - Glu - His - D.homoPhe - Arg - Trp - Gly - NH2
Batch II: H - Glu - His - D.homoPhe - Arg - Trp - Gly - NH2
Batch III: Control=(DL) - Lipoic Acid
Solvent: propylene Glycol previously used as control in Example 10.
Control: dose used"DL-Lipoic-Acid"=10 ng per mouse and per day.
as §1, with “were” for “are”, “05510)” for “0510)”
as §2, with “batch. The percentage of suppression where appropriate will be expressed by the following calculation: [formula]” for “batch.”

cultured embryonic cells = experiment: Effects of Peptides PI and PIV on cultured embryonic cells in vitro (melanocytes, neurons, muscular cells, fibroblasts); format: cell-based
Protocol: Effects of Peptides PI and PIV on cultured embryonic cells in vitro . . . "Melanocytes - Neurons - Muscular Cells and Fibroblasts . . . " dose used 1 μg/ml (defined by dose/response trials)
1 single treatment during the innoculation of the cells or several successive treatments (renewal of the medium every 48 hours) duration of culture: 6 to 8 days
1) Counting of the melanocytes
2) Assay of melanin by HPLC and/or by spectrophotometry
Daily observation of the cultures
Ultrastructure by transmission electron microscopy.

## [(DL) Lip] Glu - His - D.homoPhe - Arg - Trp - Gly - NH2 [PI]
[1]; 1 ng/mouse/day
  % SUPPRESSION RELATIVE TO THE CONTROL BATCH, Left Ear: -75.40%
  % SUPPRESSION RELATIVE TO THE CONTROL BATCH, Right Ear: -75.58%
  LEFT EAR MEAN % INCREASE: 13.86%
  RIGHT EAR MEAN % INCREASE: 13.86%
[1]; 10 ng/mouse/day
  % SUPPRESSION RELATIVE TO THE CONTROL BATCH, Left Ear: -77.01%
  % SUPPRESSION RELATIVE TO THE CONTROL BATCH, Right Ear: -76.90%
  LEFT EAR MEAN % INCREASE: 12.95%
  RIGHT EAR MEAN % INCREASE: 13.01%
[1]; 100 ng/mouse/day
  % SUPPRESSION RELATIVE TO THE CONTROL BATCH, Left Ear: -79.30%
  % SUPPRESSION RELATIVE TO THE CONTROL BATCH, Right Ear: -79.45%
  LEFT EAR MEAN % INCREASE: 11.66%
  RIGHT EAR MEAN % INCREASE: 11.66%
  suppression of cutaneous hypersensitivity: 79%
Cultured embryonic cells; 1 μg/ml
  effect on precursor embryonic cells not yet determined in the melanoblastic pathway (in words): no effect
  effect on the melanoblasts already induced (in words): stimulating effect
  number of melanocytes increases by a factor: ≥ 2
  toxic effect on astroglial cells (in words): No toxic effect
  toxic effect on fibroblasts, mesenchyme (in words): no toxic effect
Cultured embryonic cells; 1 μg/ml, after eight days of culture
  quantity of biosynthesized melanin per cell: 1.4 ng/cell
Cultured embryonic cells; 1 μg/ml, even at an ultrastructural level
  toxic effect on myoblasts (in words): no toxic effect
Cultured embryonic cells; qualitative and quantitative
  effect on melanogenesis, summary (in words): stimulate melanogenesis
Cultured embryonic cells; summary
  cytotoxic effect on the various cell categories (in words): no cytotoxic effect
  stimulating effect on the other cell types: neurons, astrocytes, muscle cells, fibroblasts (in words): without stimulating effect

## O=C(O)CCCCC1CCSS1 (stereo not drawn) [Lipoic acid, (DL) - Lipoic Acid, reference compound]
[1]; 10 ng per mouse and per day, in solution in Propylene Glycol
  suppressive effect of cutaneous hypersensitivity (in words): No suppressive effect

From patent US5830994A, “Peptide derivatives of alpha-MSH and their application” (Institut Europeen De Biologie Cellulaire, priority 1993, dated 1998)
